What was measured:
Molm-13 cells [1] = assay: Proliferation, modified MTT assay (EZ4U) on AML cells; type: cell-based; settings: 48 h; for inhibition at 2.5 µM: Homo sapiens
Method: (§1) Proliferation was measured using a modified MTT assay (EZ4U kit, Biomedica, Vienna, Austria) according to the manufacturer’s instructions. In brief, 2.5 × 10^4 (Molm-13)—5.0 × 10^4 cells (KMS-12-PE cells) were seeded in 96-well plates and substances were added as indicated. Different concentrations are due to the different doubling time of the cells (24 h vs. 48 h). Cells were incubated for 48 h and during the last 7 h of incubation, 3-(4,5-dimethylthiazol-2-yl)-2,5-diphenyltetrazolium bromide was added as a substrate. Reduction of the tetrazolium salt to formazan by the mitochondrial activity of the growing cells was measured as optical density at 492 nm (with 620 nm as reference) on a plate reader. Proliferation (mean +/− SD) was calculated as the percentage of control (without substances). Concentrations used were 10 µM/5 µM/2.5 µM for all substances. Gilteritinib was used as a positive control at 2.5 µM.

Molm-13 cells [2] = assay: Apoptosis measurement (AnnexinV/PI staining) on AML cells; type: cell-based; settings: for EC50: best-fit model; for viability at 12.5 µM: Molm-13, 12.5 µM; for viability at 12.5 µM / viability at 25 µM / viability at 50 µM: 48 h, read-out: % Alive (cells alive of control); for viability at 25 µM: Molm-13, 25 µM; for viability at 50 µM: Molm-13, 50 µM; for Cytotoxic effect / induction of apoptosis (in words): Molm-13, 12.5-50 µM
Method: (§2) Cytotoxicity was measured as induction of apoptosis in myeloma cell line KMS-12-PE and AML cell line Molm-13, staining the cells with AnnexinV-fluorescein isothiocyanate (AnnexinV-FITC) and propidium iodide (PI). Cell lines were purchased from DSMZ (Braunschweig, Germany) and routinely fingerprinted and tested for mycoplasma negativity. All cell lines were grown in RPMI-1640 medium (Life Technologies, Paisley, UK), and supplemented with 10% fetal calf serum (FCS; PAA, Linz, Austria), L-glutamine 100 µg/mL, and penicillin-streptomycin 100 U/mL. Compounds were dissolved in DMSO at a stock concentration of 50 mM and stored at −20 °C. Briefly, 0.5 × 10^6 cancer cells/mL were incubated for 24 h and 48 h with or without the tested compounds at indicated concentrations. Analyses were performed in duplicates and a solvent control was included. The extent of non-apoptotic cells (AnnexinV/propidium iodide negativity) was calculated as the percentage of viable cells in respect to the untreated control. Data are shown as the mean percentage of viable cells +/− standard deviation (SD) (error bars).

FLT3 = target: T1, FLT3 (Homo sapiens, UniProt P36888); assay: FLT3 kinase assay (Z'-LYTE); type: biochemical; settings: 6.25 nM (lowest concentration), 20 ng FLT3 protein
T1 construct: purchased Thermo Fisher Scientific Inc. (Waltham, MA, USA)
T1 sequence (P36888 27-993): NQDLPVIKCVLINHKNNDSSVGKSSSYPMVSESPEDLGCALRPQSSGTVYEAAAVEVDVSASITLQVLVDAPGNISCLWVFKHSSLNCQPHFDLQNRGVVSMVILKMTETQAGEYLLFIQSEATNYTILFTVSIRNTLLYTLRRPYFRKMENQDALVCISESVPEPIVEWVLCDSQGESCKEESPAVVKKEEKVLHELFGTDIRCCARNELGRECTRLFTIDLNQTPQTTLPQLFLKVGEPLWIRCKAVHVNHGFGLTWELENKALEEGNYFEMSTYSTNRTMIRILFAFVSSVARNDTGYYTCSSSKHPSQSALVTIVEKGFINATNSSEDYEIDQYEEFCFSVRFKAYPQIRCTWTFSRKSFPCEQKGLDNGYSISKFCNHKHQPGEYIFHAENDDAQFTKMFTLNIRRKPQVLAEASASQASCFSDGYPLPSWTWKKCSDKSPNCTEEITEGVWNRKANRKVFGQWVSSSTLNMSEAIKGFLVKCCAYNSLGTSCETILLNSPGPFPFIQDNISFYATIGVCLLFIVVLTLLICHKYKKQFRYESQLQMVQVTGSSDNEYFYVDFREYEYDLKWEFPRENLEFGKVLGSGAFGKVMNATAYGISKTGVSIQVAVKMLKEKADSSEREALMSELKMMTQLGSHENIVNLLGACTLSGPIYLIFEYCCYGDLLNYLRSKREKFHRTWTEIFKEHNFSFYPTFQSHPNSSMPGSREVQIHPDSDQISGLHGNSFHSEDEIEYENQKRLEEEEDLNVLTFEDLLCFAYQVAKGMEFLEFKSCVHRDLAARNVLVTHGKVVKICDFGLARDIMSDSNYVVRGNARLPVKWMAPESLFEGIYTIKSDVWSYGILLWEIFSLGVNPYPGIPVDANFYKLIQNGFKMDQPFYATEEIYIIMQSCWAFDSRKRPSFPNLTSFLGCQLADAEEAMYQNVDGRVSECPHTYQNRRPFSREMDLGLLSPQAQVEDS
Method: FLT3 inhibitory activity of compounds 1 and 3 was determined using the Z’-LYTE screening protocol. Z’-LYTE Kinase Assay—Tyrosine 2 Peptide Kit and FLT3 were purchased from Thermo Fisher Scientific Inc. (Waltham, MA, USA). The assay was performed according to the manufacturer’s instructions using a kinase buffer (50 mM HEPES pH 7.5, 0.01% BRIJ-35, 10 mM MgCl2, 1 mM EGTA) containing 0.01 to 20 ng of FLT3. Compounds were measured at concentrations of 50 nM/25 nM/12.5 nM/6.25 nM using gilteritinib as a positive control.

KMS-12-PE cells [3] = assay: Proliferation, modified MTT assay (EZ4U) on myeloma cells; type: cell-based; settings: 10 to 2.5 µM (gilteritinib 2.5 µM), 48 h
Method: as §1

KMS-12-PE cells [4] = assay: Apoptosis measurement (AnnexinV/PI staining) on myeloma cells; type: cell-based; settings: for Cytotoxic effect / induction of apoptosis (in words): 12.5-50 µM; for viability at 12.5 µM / viability at 25 µM / viability at 50 µM / EC50: 48 h; for viability at 12.5 µM / viability at 25 µM / viability at 50 µM: read-out: % Alive (cells alive of control); for EC50: best-fit model
Method: as §2

[5] = Molm-13, 2.5 µM, compared to untreated cells

Compound	inhibition at 2.5 µM (Molm-13 cells [1]; [5])	EC50 (Molm-13 cells [2]; Homo sapiens, MOLM-13, 48 h)	viability at 12.5 µM (Molm-13 cells [2]; Homo sapiens)	viability at 25 µM (Molm-13 cells [2]; Homo sapiens)	viability at 50 µM (Molm-13 cells [2]; Homo sapiens)	Cytotoxic effect / induction of apoptosis (in words) (Molm-13 cells [2])	EC50 (Molm-13 cells [2]; Molm-13, 48 h)	inhibition at 0.00625 µM (FLT3)	Inhibition of proliferation (in words) (KMS-12-PE cells [3])	Cytotoxic effect / induction of apoptosis (in words) (KMS-12-PE cells [4])	viability at 12.5 µM (KMS-12-PE cells [4]; Homo sapiens)	viability at 25 µM (KMS-12-PE cells [4]; Homo sapiens)	viability at 50 µM (KMS-12-PE cells [4]; Homo sapiens)	EC50 (KMS-12-PE cells [4]; Homo sapiens)	Inhibition of proliferation (Molm-13 cells [1]; Molm-13, concentrations from 10 to 2.5 µM, compared to untreated cells)	EC50 (KMS-12-PE cells [4])	Effect on proliferation (in words) (Molm-13 cells [1]; Molm-13, 2.5 µM, positive control)
COc1cc2oc(-c3ccc(O)cc3)cc(=O)c2c(O)c1OC [Compound 1, cirsimaritin]	72%	~22 µM	77.3 ± 9%	48.4 ± 12%	12.9 ± 4.1%	induced apoptosis	21.7 µM	81%	marginally	induced apoptosis	86.8 ± 14.5%	76.6 ± 25.6%	58.9 ± 28.6%	> 50 µM			
COc1ccc(-c2cc(=O)c3c(O)c(OC)c(OC)cc3o2)cc1OC [Compound 2, 5-desmethylsinensetin]		> 50 µM	91.1 ± 3.4%	90.9 ± 0.4%	88.6 ± 1.8%	no effects				no effects	94.6 ± 10.2%	93.4 ± 9.3%	93.1 ± 10.2%	> 50 µM			
COc1c(OC)c(O)c2c(=O)cc(-c3ccc(O)cc3)oc2c1OC [Compound 3, xanthomicrol]	84%	~28 µM	56.4 ± 9.1%	53.5 ± 1%	47 ± 2.7%		28 µM	88%	marginally		69.5 ± 16%	62.6 ± 13.1%	55.4 ± 13.1%	45.4 µM	up to 93%		
O=c1cc(-c2ccc(O)cc2)oc2cc(O)cc(O)c12 [Compound 4, apigenin]		> 50 µM	98 ± 1.6%	89.5 ± 3.9%	58.4 ± 14.2%						85.5 ± 10.6%	69.4 ± 31.3%	59.6 ± 16.1%	> 50 µM			
O=c1cc(-c2ccc(O)c(O)c2)oc2cc(O)cc(O)c12 [Compound 5, luteolin]		42.3 µM	86.5 ± 5.2%	72.4 ± 4%	30.2 ± 13.7%						80.3 ± 5.4%	70.5 ± 5.6%	50.3 ± 18.4%	> 50 µM			
COc1ccc(-c2cc(=O)c3c(O)cc(O)cc3o2)cc1O [Compound 6, diosmetin]		> 50 µM	91.5 ± 2.8%	76.2 ± 6.7%	39.8 ± 5.8%						77.3 ± 6.9%	44.2 ± 19%	31.1 ± 5.3%	26 µM		25.7 µM	
O=c1c(O)c(-c2ccc(O)cc2)oc2cc(O)cc(O)c12 [Compound 7, kaempferol]		> 50 µM	93.1 ± 5.1%	83.1 ± 5.7%	50.2 ± 11.4%	induced apoptosis				induced apoptosis	98 ± 2.7%	91.2 ± 15%	76.3 ± 17.3%	> 50 µM			
O=c1c(O)c(-c2ccc(O)c(O)c2)oc2cc(O)cc(O)c12 [Compound 8, quercetin]		> 50 µM	100 ± 2.2%	94.4 ± 3.9%	79.8 ± 10.2%	induced apoptosis				induced apoptosis	96.6 ± 2.7%	79 ± 4.8%	43.7 ± 8.3%	> 50 µM			
COc1cc([C@H]2OC[C@H]3[C@@H]2CO[C@@H]3c2ccc3c(c2)OCO3)ccc1O [Compound 9, (+)-piperitol]		> 50 µM	102 ± 1.3%	100 ± 2.1%	97.5 ± 2.4%						102.8 ± 0.8%	100.1 ± 0.8%	97.1 ± 4.1%	> 50 µM			
O[C@@H]1O[C@H](c2ccc3c(c2)OCO3)[C@H]2CO[C@H](c3ccc4c(c3)OCO4)[C@H]21 [Compound 10, (+)-9α-hydroxysesamin]		> 50 µM	101 ± 1.4%	100 ± 2%	98.7 ± 1.7%						99 ± 0.6%	96.7 ± 0.5%	89.4 ± 0.8%	> 50 µM			
O=C(O)/C=C/c1ccc(O)c(O)c1 [Compound 11, caffeic acid]		> 50 µM	96.9 ± 4.6%	98.1 ± 3.8%	98.8 ± 2.8%						102 ± 1.8%	102.5 ± 0.9%	102.6 ± 0.5%	> 50 µM			
O=C(/C=C/c1ccc(O)c(O)c1)O[C@H](Cc1ccc(O)c(O)c1)C(=O)O [Compound 12, (R)-(+)-rosmarinic acid]		> 50 µM	97.6 ± 3.2%	98.5 ± 3.6%	100.8 ± 0.6%						100.2 ± 0.9%	102 ± 1.5%	98.2 ± 1.5%	> 50 µM			
COc1cc(/C=C/C(=O)O[C@H](Cc2ccc(O)c(O)c2)C(=O)O)ccc1O [Compound 13, (R)-(+)-3′-O-methylrosmarinic acid]		> 50 µM	99.6 ± 2.6%	99.4 ± 1.9%	97.8 ± 4%						102 ± 1.6%	101 ± 1.8%	101 ± 3.4%	> 50 µM			
CCc1nc(C(N)=O)c(Nc2ccc(N3CCC(N4CCN(C)CC4)CC3)c(OC)c2)nc1NC1CCOCC1 [gilteritinib, reference compound]																	high effect

Source: PMC9696366, “Flavones, Flavonols, Lignans, and Caffeic Acid Derivatives from Dracocephalum moldavica and Their In Vitro Effects on Multiple Myeloma and Acute Myeloid Leukemia” (International Journal of Molecular Sciences, 2022)
